The results in this text go back to patent US4359462A, “Antibiotic 67-121, a new polyene antifungal antibiotic produced by Actinoplanes caeruleus” (priority 1980, dated 1982).

In brackets after ≈: the same amount, converted by molar mass. Like-named read-outs stand apart in the source and are kept apart here.

Series [1] is described as follows: Acute toxicity in male CF 1 mice. The following applies: mouse, in vivo. As for the experimental part: Similarly, in another series of tests the acute toxicity of antibiotics 67-121A, 67-121B and 67121C were determined in male CF 1 mice.
The subject of series [2] is Candida albicans. The series is described as follows: In vivo protective activity in mice against Candida albicans, single dose one hour after infection. Further details: species or system CF 1 mice. Particulars: read-out: PD50. As for the experimental part: (§1) The in vivo protective activity of the antibiotic products in mice (Carworth farm CF 1 mice, each weighing about 20 g.) against Candida albicans was determined. The antibiotic was administered by the stated route in an aqueous vehicle containing 0.5% carboxymethyl cellulose and in two doses. One dose was administered shortly before intravenous infection with a lethal dose of Candida albicans and the other dose was administered 4 hours after infection. Most of the unprotected control mice died within 24 to 48 hours after infection. The survival rate was determined at the end of 24 and 48 hours and from this using standard procedures the PD50 values were determined.
The PD50 values for antibiotics 67-121A, 67-121B and 67-121C using CF 1 mice were determined using essentially the above described method, with the exception that the antibiotic was administered as a single dose one hour after infection with Candida albicans.
The PD50 values were determined on survivors 72 hours after infection. Of the untreated, infected control mice, 80% died within 24 hours and 100% within 48 hours.

A short description of series [3]: pKa. Particulars: 66% aqueous dimethylformamide, 66% aqueous dimethyl formamide.
Series [4] can be described thus: physchem. The following applies: 66% aqueous dimethylformamide.
For series [5], the system named is Cryotococcus. As to the kind of experiment: In vitro antifungal activity, MIC by tube dilution. It counts as cell-based. Particulars: single strain; same conditions (48 hours). As for the experimental part:
(§2) For reference, data on candicidin are also given. The quoted minimal inhibitory concentrations (MIC) were obtained by conventional tube dilution techniques using Sabouraud's dextrose broth.
(§3) As representative of the component antibiotics, antibiotic 67-121A and antibiotic 67-121C were tested in the same manner as the complex. Antibiotic 67-121A gave MIC values of from less than 0.01 up to 0.03 meg/ml. against 18 strains of Candida albicans, while antibiotic 67-121C gave MIC values of 0.05 to 0.3 meg/ml. against 9 strains of Candida albicans after incubation times of 48 hours. Further testing of antibiotic 67-121C under the same conditions gave MIC values of 0.3 meg/ml. against two strains of Torulopsis and a single strain of Cryotococcus.

Series [6] has as its system Torulopsis. As to the kind of experiment: In vitro antifungal activity, MIC by tube dilution. It counts as cell-based. Particulars: two strains of Torulopsis; same conditions (48 hours). As for the experimental part:
as §2, §3

Series [7] relates to mice. As to the kind of experiment: Acute toxicity in mice. In kind it is in vivo. As for the experimental part:
The acute toxicity of the antibiotic 67-121 complex in mice was determined via intraperitoneal (I.P.) and subcutaneous (S.C.) administration. For comparison, the values of candicidin were determined.

In series [8] the test system is Candida albicans. As to the kind of experiment: In vitro antifungal activity, MIC by tube dilution (Sabouraud's dextrose broth). It counts as cell-based. As for the experimental part:
as §2, §3

The test system of series [9] is Candida albicans. As to the kind of experiment: In vivo protective activity in mice against lethal Candida albicans infection, two doses. Further details: species or system mice (Carworth farm CF 1). Particulars: survivors 48 hours after infection. As for the experimental part: as §1
The results obtained for the Antibiotic 67-121 complex are given in Table 5 together with data for candicidin (for comparison purposes). The PD50 values were determined on survivors 48 hours after infection.

Series [10] deals with Aspergillus niger. As to the kind of experiment: In vitro antifungal activity, MIC by tube dilution. Particulars: 72 hrs. In kind it is cell-based.
Excerpt: as §2

For series [11], the system named is Trichophyton soudanese. The series is described as follows: In vitro antifungal activity, MIC by tube dilution. In kind it is cell-based. The following applies: strain 2; 72 hrs.
Excerpt: as §2

In series [12] the test system is Trichophyton mentagrophytes. The series is described as follows: In vitro antifungal activity, MIC by tube dilution. In kind it is cell-based. Particulars: 72 hrs.
Excerpt: as §2

Series [13] relates to Terulopsis glabrata. The series is described as follows: In vitro antifungal activity, MIC by tube dilution. In kind it is cell-based.
Excerpt: as §2

Where [14] appears, read: Oral, single dose one hour after infection, survivors 72 hours after infection.
The mark [15] stands for this setting: sc, Subcutaneous, single dose one hour after infection, survivors 72 hours after infection.

The LD50 is the dose expected to kill half of the subjects tested. Low values mean greater toxicity, high ones lower toxicity. Usually pKa stands for the negative logarithm of the acid dissociation constant. A higher pKa goes with a group that holds its proton tightly. Turning to `CNc1ccc(C(=O)CC(O)CCC(C)C2OC(=O)CC(O)CC(O)CC(O)CC(O)CC(O)CC(O)CC3(O)CC(O)C(C(=O)O)C(CC(OC4OC(C)C(O)C(N)C4O)C=CC=CC=CC=CC=CC=CC=CC2C)O3)cc1` (centres unmarked) [Antibiotic 67-121A], the LD50 in series [1] (ip, I.P.) was 2.4 mg/kg; in [1] (sc, S.C.), more than 50 mg/kg; in series [1] (Oral), more than 50 mg/kg. Moreover, the ED50 came out at 1.5 mg/kg in [2] (po, 72 h) and 2.5 mg/kg in series [2] (sc, 72 h). In addition, the pKa in [3] (pka (COO^-)) was found to be 6; in series [3] (pka (NH3^+)), 9.

Regarding `CC1C=CC=CC=CC=CC=CC=CC=CC(OC2OC(C)C(O)C(N)C2O)CC2OC(O)(CC(O)CC(O)CC(O)CC(O)CC(O)CC(O)CC(=O)OC1C(C)CCC(O)CC(=O)c1ccc(N)cc1)CC(O)C2C(=O)O` (centres unmarked) [Antibiotic 67-121B], the pKa in [4] (pka (COO^-)) amounted to 6.3; in [4] (pka (NH3^+)), 9. Moreover, the 50% lethal dose (LD50) in series [1] (ip) was 6 mg/kg; in series [1] (po) it was more than 50 mg/kg; in series [1] (sc), more than 50 mg/kg. For the same compound, the ED50 in series [2] (setting [14]) is 18 mg/kg; in series [2] (setting [15]) it was 15 mg/kg.

Usually MIC stands for the least concentration at which growth counts as inhibited. Higher therefore signals weaker potency. For `CNc1ccc(C(=O)CC(O)CCC(C)C2OC(=O)CC(O)CC(O)CC(O)CC(O)CC(O)CC(O)CC3(O)CC(O)C(C(=O)O)C(CC(OC4OC(C)C(OC5OC(CO)C(O)C(O)C5O)C(N)C4O)C=CC=CC=CC=CC=CC=CC=CC2C)O3)cc1` (centres unmarked) [Antibiotic 67-121C], the pKa in series [4] (pka (COO^-)) worked out at 6; in series [4] (pka (NH3^+)), 9. Besides, in series [1] (ip), the LD50 worked out at 6 mg/kg. Besides, the ED50 in [2] (setting [14]) worked out at 1.5 mg/kg; in [2] (setting [15]) it was 2.1 mg/kg. The MIC in series [5] and in [6] was 0.3 µg/mL (≈ 0.232 µM) in each case.

Consider Candicidin, for which the LD50 in series [7] (I.P.) is 8 to 22 mg/kg; in [7] (S.C.) it was 300 mg/kg. The “Minimum Inhibitory Concentration (M.I.C.)” value in series [8] (strain 401, 24 hrs.) is 0.8 meg/ml; in series [8] (strain 401, 48 hrs.), 3.0 meg/ml; in series [8] (strain 402, 24 hrs.), 0.03 meg/ml; in series [8] (strain 402, 48 hrs.), 0.08 meg/ml; in series [8] (strain 403, 24 hrs.) it was 0.03 meg/ml; in series [8] (strain 403, 48 hrs.), 0.08 meg/ml. Moreover, the “Minimum Inhibitory Concentration (M.I.C.)” value in series [8] (strain 404, 24 hrs.) came to 0.8 meg/ml; in [8] (strain 404, 48 hrs.), 3.0 meg/ml; in series [8] (strain 406, 24 hrs.) it was 0.03 meg/ml; in [8] (strain 406, 48 hrs.) it was 0.08 meg/ml; in [8] (strain 420, 24 hrs.) it was 3.0 meg/ml; in series [8] (strain 420, 48 hrs.), 7.5 meg/ml. Further, the “Minimum Inhibitory Concentration (M.I.C.)” value in series [10] turned out to be 7.5 meg/ml; in series [11] it was 25 meg/ml; in series [12] (strain 1A), 17.5 meg/ml; in series [12] (strain 17) it was 25 meg/ml; in [13] (strain 1, 24 hrs.), 0.03 meg/ml; in series [13] (strain 1, 48 hrs.) it was 0.3 meg/ml. Besides, the “Minimum Inhibitory Concentration (M.I.C.)” value was found to be 0.03 meg/ml in series [13] (strain 2, 24 hrs.); 0.08 meg/ml in series [13] (strain 2, 48 hrs.); 0.03 meg/ml in series [13] (strain 3, 24 hrs.); 0.08 meg/ml in series [13] (strain 3, 48 hrs.); 0.03 meg/ml in series [13] (strain 16, 24 hrs.); 0.3 meg/ml in series [13] (strain 16, 48 hrs.). Further, the “Minimum Inhibitory Concentration (M.I.C.)” value in series [13] (strain 17, 24 hrs.) came out at 0.03 meg/ml; in [13] (strain 17, 48 hrs.) it was 0.08 meg/ml. The PD50 was 25 mg/kg in series [9] (Test 1, Oral); 5 mg/kg in series [9] (Test 1, Subcutaneous); 5 mg/kg in series [9] (Test 2, Oral); 5 mg/kg in [9] (Test 2, Subcutaneous); 25 mg/kg in series [9] (Test 3, Subcutaneous); 40 mg/kg in series [9] (Test 4, Oral). The compound also yielded a PD50 in series [9] (Test 4, Subcutaneous) of 2.5 mg/kg.
